Measurements: patent publication US20230364070A1, “PYRROLO[3,2-C]PYRIDIN-4-ONE DERIVATIVES USEFUL IN THE TREATMENT OF CANCER” (Scorpion Therapeutics, Inc., priority 2020, published 2023)

Key:
Assay type in all cases: cell-based
Ba/F3 cells with EGFR WT = target: T1, Ba/F3 cells with EGFR WT (Homo sapiens, UniProt P00533); assay: EGFR activity: Ba/F3 cell viability (CellTiter-Glo, 72 h), EGFR WT; conditions: read-out: BaF3 WT IC50
T1 construct: expressed in transfected cells; host or cells: Ba/F3 (murine pro-B cells), retroviral transduction, puromycin selection, maintained with EGF

[1] = target: T2, Ba/F3 cells with EGFR exon 20 NPG Ins D770_N771 (Homo sapiens, UniProt P00533, INS770NPG); assay: EGFR activity: Ba/F3 cell viability (CellTiter-Glo, 72 h), EGFR exon 20 NPG insertion; conditions: EGFR exon 20 NPG Ins D770_N771, cell viability, read-out: BaF3 NPG IC50
T2 construct: expressed in transfected cells; host or cells: Ba/F3 (murine pro-B cells), retroviral transduction, puromycin selection, IL3-independent pool

[2] = target: T3, pEGFR in Ba/F3 cells expressing EGFR exon 20 NPG Ins D770_N771 (Homo sapiens, UniProt P00533, INS770NPG); assay: Inhibitor activity on EGFR phosphorylation (pEGFR AlphaLISA, 2 h), Ba/F3 EGFR exon 20 NPG insertion; conditions: Ba/F3 EGFR exon 20 NPG Ins D770_N771
T3 construct: expressed in transfected cells; host or cells: Ba/F3 (murine pro-B cells), retroviral transduction, puromycin selection, IL3-independent pool

[3] = target: T4, Ba/F3 cells with EGFR exon 20 ASV Ins V769_D770 (Homo sapiens, UniProt P00533, INS769ASV); assay: EGFR activity: Ba/F3 cell viability (CellTiter-Glo, 72 h), EGFR exon 20 ASV insertion; conditions: EGFR exon 20 ASV Ins V769_D770, cell viability, read-out: BaF3 ASV IC50
T4 construct: expressed in transfected cells; host or cells: Ba/F3 (murine pro-B cells), retroviral transduction, puromycin selection, IL3-independent pool

pEGFR in CUTO14 cells = target: T5, pEGFR in CUTO14 cells (Homo sapiens, UniProt P00533, DUP767-769); assay: Inhibitor activity on EGFR phosphorylation (pEGFR AlphaLISA, 2 h), CUTO14 cells
T5 construct: endogenous in cells; host or cells: CUTO14 cells
Protocol: CUTO14 cells were obtained from Dr. Robert C. Doebele at the University of Colorado.
Shake 350 rpm for 1 hr in the dark • 3.4 Prepare donor mix under low light conditions prior to use. Dispense 5 μL of donor mix to all the wells. Mix well on the shaker, seal and wrap in aluminum foil and incubate 1.5 hrs at room temperature in the dark • 3.5 Transfer 18.5 μL mixture to OptiPlate 384, and read using an Envision.

T3 sequence (P00533 with tags, fused parts or gaps INS770NPG): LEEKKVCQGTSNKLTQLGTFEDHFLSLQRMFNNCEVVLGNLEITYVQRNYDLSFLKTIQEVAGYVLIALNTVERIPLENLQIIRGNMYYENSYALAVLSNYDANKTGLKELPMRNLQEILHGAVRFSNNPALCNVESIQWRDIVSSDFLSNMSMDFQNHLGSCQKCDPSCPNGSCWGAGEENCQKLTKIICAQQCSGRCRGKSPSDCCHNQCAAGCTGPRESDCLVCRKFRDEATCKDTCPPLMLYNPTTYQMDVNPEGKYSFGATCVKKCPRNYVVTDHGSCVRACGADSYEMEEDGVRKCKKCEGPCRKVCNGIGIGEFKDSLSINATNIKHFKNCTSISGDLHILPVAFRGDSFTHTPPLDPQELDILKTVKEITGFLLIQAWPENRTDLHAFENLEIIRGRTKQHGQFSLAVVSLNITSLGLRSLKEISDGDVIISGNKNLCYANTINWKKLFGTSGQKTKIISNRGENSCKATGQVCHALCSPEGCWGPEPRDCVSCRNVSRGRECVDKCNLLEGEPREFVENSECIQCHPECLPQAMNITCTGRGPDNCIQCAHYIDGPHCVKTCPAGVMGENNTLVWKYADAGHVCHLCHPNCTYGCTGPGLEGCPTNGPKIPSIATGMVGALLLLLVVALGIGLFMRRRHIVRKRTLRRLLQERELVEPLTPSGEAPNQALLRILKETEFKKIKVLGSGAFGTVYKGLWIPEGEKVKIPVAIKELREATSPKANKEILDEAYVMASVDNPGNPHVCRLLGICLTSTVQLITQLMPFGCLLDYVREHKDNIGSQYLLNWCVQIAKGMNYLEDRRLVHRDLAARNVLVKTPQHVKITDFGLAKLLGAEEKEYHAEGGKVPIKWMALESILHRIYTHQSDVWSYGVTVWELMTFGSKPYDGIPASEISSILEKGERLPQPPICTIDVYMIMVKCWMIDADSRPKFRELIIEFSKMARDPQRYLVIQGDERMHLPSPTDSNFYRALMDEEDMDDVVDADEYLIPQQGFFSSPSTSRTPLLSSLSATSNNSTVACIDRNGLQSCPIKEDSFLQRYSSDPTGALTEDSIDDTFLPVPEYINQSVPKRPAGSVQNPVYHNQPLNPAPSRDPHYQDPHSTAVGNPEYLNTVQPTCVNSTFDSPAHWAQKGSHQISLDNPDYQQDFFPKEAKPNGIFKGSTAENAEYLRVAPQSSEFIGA
T2 sequence (P00533 with tags, fused parts or gaps INS770NPG): as above
T5 sequence (P00533 with tags, fused parts or gaps DUP767-769): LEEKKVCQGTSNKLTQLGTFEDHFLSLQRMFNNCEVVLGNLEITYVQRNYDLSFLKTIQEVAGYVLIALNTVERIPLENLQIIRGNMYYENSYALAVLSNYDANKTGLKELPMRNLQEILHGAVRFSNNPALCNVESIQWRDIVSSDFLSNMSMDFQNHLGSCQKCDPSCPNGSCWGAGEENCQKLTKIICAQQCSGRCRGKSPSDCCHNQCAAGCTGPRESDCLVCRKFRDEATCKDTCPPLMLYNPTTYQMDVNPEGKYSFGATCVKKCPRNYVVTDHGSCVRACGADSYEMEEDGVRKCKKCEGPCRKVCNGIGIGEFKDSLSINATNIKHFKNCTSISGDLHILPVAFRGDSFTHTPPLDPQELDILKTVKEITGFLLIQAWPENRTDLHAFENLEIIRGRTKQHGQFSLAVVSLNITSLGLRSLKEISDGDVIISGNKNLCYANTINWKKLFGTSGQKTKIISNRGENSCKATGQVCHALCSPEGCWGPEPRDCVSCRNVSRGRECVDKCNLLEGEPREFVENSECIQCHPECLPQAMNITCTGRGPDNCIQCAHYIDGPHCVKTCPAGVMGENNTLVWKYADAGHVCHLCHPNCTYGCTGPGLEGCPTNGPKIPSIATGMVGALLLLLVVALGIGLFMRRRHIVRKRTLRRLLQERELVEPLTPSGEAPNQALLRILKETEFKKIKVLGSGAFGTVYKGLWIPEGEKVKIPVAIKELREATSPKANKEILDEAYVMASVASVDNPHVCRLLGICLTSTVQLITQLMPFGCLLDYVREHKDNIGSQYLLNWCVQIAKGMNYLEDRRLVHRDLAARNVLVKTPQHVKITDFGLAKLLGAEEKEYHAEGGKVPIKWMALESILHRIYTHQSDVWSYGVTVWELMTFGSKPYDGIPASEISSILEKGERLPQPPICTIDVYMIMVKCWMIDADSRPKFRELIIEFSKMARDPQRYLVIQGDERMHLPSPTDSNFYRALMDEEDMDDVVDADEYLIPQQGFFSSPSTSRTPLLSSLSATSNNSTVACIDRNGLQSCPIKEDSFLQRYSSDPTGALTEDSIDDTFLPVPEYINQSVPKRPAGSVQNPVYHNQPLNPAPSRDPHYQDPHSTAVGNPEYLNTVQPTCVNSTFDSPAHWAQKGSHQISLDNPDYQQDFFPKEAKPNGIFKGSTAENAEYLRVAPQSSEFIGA
T4 sequence (P00533 with tags, fused parts or gaps INS769ASV): as the sequence (P00533 with tags, fused parts or gaps DUP767-769) above

Row | IC50 [2] | IC50 (pEGFR in CUTO14 cells) | SMILES | IC50 (Ba/F3 cells with EGFR WT) | IC50 [1] | IC50 [3]
1 | > 1 µM | – | COc1c(F)cccc1Nc1c(-c2ccncc2OCC2CCc3nccn32)[nH]c2c1C(=O)NCC2 (stereo not shown) [Compound 128, 2-(3-((6,7-dihydro-5H-pyrrolo[1,2-a]imidazol-5-yl)methoxy)pyridin-4-yl)-3-((3-fluoro-2-methoxyphenyl)amino)-1,5,6,7-tetrahydro-4H-pyrrolo[3,2-c]pyridin-4-one] | > 1 µM | > 1 µM | –
2 | > 1 µM | – | COc1c(F)cccc1Nc1c(-c2ccncc2OCc2nnc3n2CCC3)[nH]c2c1C(=O)NCC2 [Compound 131, 3-[(3-fluoro-2-methoxyphenyl)amino]-2-(3-[5H,6H,7H-pyrrolo[2,1-c][1,2,4]triazol-3-ylmethoxy]pyridin-4-yl)-1H,5H,6H,7H-pyrrolo[3,2-c]pyridin-4-one] | > 1 µM | > 1 µM | –
3 | < 0.1 µM | – | C=CC(=O)N1CCC[C@@H]1COc1cnccc1-c1[nH]c2c(c1Nc1cccc(Cl)c1OC)C(=O)NCC2 [Compound 138a, 3-[(3-chloro-2-methoxyphenyl)amino]-2-(3-[[(2R)-1-(prop-2-enoyl)pyrrolidin-2-yl]methoxy]pyridin-4-yl)-1H,5H,6H,7H-pyrrolo[3,2-c]pyridin-4-one] | 0.1 to 1 µM | < 0.1 µM | < 0.1 µM
4 | < 0.1 µM | – | C=CC(=O)N1CCC[C@H]1COc1cnccc1-c1[nH]c2c(c1Nc1cccc(Cl)c1OC)C(=O)NCC2 [Compound 138b, (S)-2-(3-((1-acryloylpyrrolidin-2-yl)methoxy)pyridin-4-yl)-3-((3-chloro-2-methoxyphenyl)amino)-1,5,6,7-tetrahydro-4H-pyrrolo[3,2-c]pyridin-4-one] | 0.1 to 1 µM | < 0.1 µM | < 0.1 µM
5 | 0.1 to 1 µM | – | CCC(=O)N1CCC[C@H]1COc1cnccc1-c1[nH]c2c(c1Nc1cccc(Cl)c1OC)C(=O)NCC2 [Compound 139, (S)-3-((3-chloro-2-methoxyphenyl)amino)-2-(3-((1-propionylpyrrolidin-2-yl)methoxy)pyridin-4-yl)-1,5,6,7-tetrahydro-4H-pyrrolo[3,2-c]pyridin-4-one] | > 1 µM | > 1 µM | > 1 µM
6 | 0.1 to 1 µM | – | COc1c(Cl)cccc1Nc1c(-c2ccncc2OC[C@@H]2CCCN2C(C)=O)[nH]c2c1C(=O)NCC2 [Compound 141a, (S)-2-(3-((1-acetylpyrrolidin-2-yl)methoxy)pyridin-4-yl)-3-((3-chloro-2-methoxyphenyl)amino)-1,5,6,7-tetrahydro-4H-pyrrolo[3,2-c]pyridin-4-one] | > 1 µM | > 1 µM | –
7 | < 0.1 µM | – | COc1c(Cl)cccc1Nc1c(-c2ccncc2OC[C@H]2CCCN2C(C)=O)[nH]c2c1C(=O)NCC2 [Compound 141b, 2-(3-[[(2R)-1-acetylpyrrolidin-2-yl]methoxy]pyridin-4-yl)-3-[(3-chloro-2-methoxyphenyl)amino]-1H,5H,6H,7H-pyrrolo[3,2-c]pyridin-4-one] | > 1 µM | > 1 µM | –
8 | 0.1 to 1 µM | – | COc1c(F)cccc1Nc1c(-c2ccncc2OCn2nnc3ccccc32)[nH]c2c1C(=O)NCC2 [Compound 479, 2-[3-(1,2,3-benzotriazol-1-ylmethoxy)pyridin-4-yl]-3-[(3-fluoro-2-methoxyphenyl)amino]-1H,5H,6H,7H-pyrrolo[3,2-c]pyridin-4-one] | > 1 µM | > 1 µM | –
9 | < 0.1 µM | – | COc1c(F)cccc1Nc1c(-c2ccncc2OCc2nccn2C)[nH]c2c1C(=O)NCC2 [Compound 482, 3-[(3-fluoro-2-methoxyphenyl)amino]-2-[3-[(1-methylimidazol-2-yl)methoxy]pyridin-4-yl]-1H,5H,6H,7H-pyrrolo[3,2-c]pyridin-4-one] | > 1 µM | 0.1 to 1 µM | –
10 | < 0.1 µM | – | COc1c(F)cccc1Nc1c(-c2ccncc2OCC2CCc3ncnn32)[nH]c2c1C(=O)NCC2 (stereo not shown) [compound 133] | > 1 µM | 0.1 to 1 µM | –
11 | < 0.1 µM | – | COc1c(Cl)cccc1Nc1c(-c2ccncc2OC[C@@H]2CCN2S(C)(=O)=O)[nH]c2c1C(=O)NCC2 [compound 192, 3-[(3-chloro-2-methoxyphenyl)amino]-2-(3-{[(2S)-1-methanesulfonylazetidin-2-yl]methoxy}pyridin-4-yl)-1H,5H,6H,7H-pyrrolo[3,2-c]pyridin-4-one] | – | – | –
12 | < 0.1 µM | – | COc1c(Cl)cccc1Nc1c(-c2ccncc2OC[C@@H]2CN(C(C)=O)CCO2)[nH]c2c1C(=O)NCC2 [compound 195, 2-(3-{[(2S)-4-acetylmorpholin-2-yl]methoxy}pyridin-4-yl)-3-[(3-chloro-2-methoxyphenyl)amino]-1H,5H,6H,7H-pyrrolo[3,2-c]pyridin-4-one] | – | – | –
13 | < 0.1 µM | – | C=CC(=O)N1CCC[C@H]1COc1cnccc1-c1[nH]c2c(c1Nc1cccc(F)c1OC)C(=O)NCC2 [compound 212, 3-[(3-fluoro-2-methoxyphenyl)amino]-2-(3-{[(2S)-1-(prop-2-enoyl)pyrrolidin-2-yl]methoxy}pyridine-4-yl)-1H,5H,6H,7H-pyrrolo[3,2-c]pyridin-4-one] | – | – | –
14 | < 0.1 µM | – | C=CC(=O)N1CCC[C@@]1(C)C#Cc1cnccc1-c1[nH]c2c(c1Nc1cccc(F)c1OC)C(=O)NCC2 [compound 246, 3-[(3-fluoro-2-methoxyphenyl)amino]-2-(3-{2-[(2S)-2-methyl-1-(prop-2-enoyl)pyrrolidin-2-yl]ethynyl}pyridin-4-yl)-1H,5H,6H,7H-pyrrolo[3,2-c]pyridin-4-one] | – | – | –
15 | – | 0.1 to 1 µM | COc1c(F)cccc1Nc1c(-c2ccncc2C#CC(C)(C)NC(=O)/C=C/CN2CCN(C)CC2)[nH]c2c1C(=O)NCC2 [compound 464] | > 1 µM | > 1 µM | > 1 µM
16 | – | < 0.1 µM | COc1c(F)cccc1Nc1c(-c2ccncc2C#CC(C)(C)NC(=O)C#CCN(C)C)[nH]c2c1C(=O)NCC2 [compound 465] | 0.1 to 1 µM | < 0.1 µM | < 0.1 µM
17 | > 1 µM | – | COc1c(Cl)cccc1Nc1c(-c2ccncc2OCc2ccco2)[nH]c2c1C(=O)NCC2 [compound 471, 3-[(3-chloro-2-methoxyphenyl)amino]-2-[3-(furan-2-ylmethoxy)pyridin-4-yl]-1H,5H,6H,7H-pyrrolo[3,2-c]pyridin-4-one] | – | – | –
18 | > 1 µM | – | COc1c(F)cccc1Nc1c(-c2ccncc2Oc2cnn(C)c2)[nH]c2c1C(=O)NCC2 [compound 484, 3-[(3-fluoro-2-methoxyphenyl)amino]-2-[3-[(1-methylpyrazol-4-yl)oxy]pyridin-4-yl]-1H,5H,6H,7H-pyrrolo[3,2-c]pyridin-4-one] | – | – | –
19 | < 0.1 µM | – | COc1c(Cl)cccc1Nc1c(-c2ccncc2C#C[C@H]2COCCN2C)[nH]c2c1C(=O)NCC2 [compound 494, 3-[(3-chloro-2-methoxyphenyl)amino]-2-(3-[2-[(3S)-4-methylmorpholin-3-yl]ethynyl]pyridin-4-yl)-1H,5H,6H,7H-pyrrolo[3,2-c]pyridin-4-one] | – | – | –
20 | < 0.1 µM | – | C=CC(=O)N1CCOC[C@H]1C#Cc1cnccc1-c1[nH]c2c(c1Nc1cccc(Cl)c1OC)C(=O)NCC2 [compound 514, 3-[(3-chloro-2-methoxyphenyl)amino]-2-(3-{2-[(3R)-4-(prop-2-enoyl)morpholin-3-yl]ethynyl}pyridin-4-yl)-1H,5H,6H,7H-pyrrolo[3,2-c]pyridin-4-one] | – | – | –
21 | < 0.1 µM | – | C=CC(=O)N1CCOC[C@@H]1C#Cc1cnccc1-c1[nH]c2c(c1Nc1cccc(Cl)c1OC)C(=O)NCC2 [compound 515, 3-[(3-chloro-2-methoxyphenyl)amino]-2-(3-{2-[(3S)-4-(prop-2-enoyl)morpholin-3-yl]ethynyl}pyridine-4-yl)-1H,5H,6H,7H-pyrrolo[3,2-c]pyridin-4-one] | – | – | –
22 | – | 0.1 to 1 µM | C=CC(=O)N1CCN(C)C[C@@H]1COc1cnccc1-c1[nH]c2c(c1Nc1cccc(Cl)c1OC)C(=O)NCC2 [compound 565] | > 1 µM | 0.1 to 1 µM | 0.1 to 1 µM
23 | – | > 1 µM | C=CC(=O)N1CCN(C)C[C@@H]1COc1cnccc1-c1[nH]c2c(c1Nc1cccc(F)c1OC)C(=O)NCC2 [compound 566] | > 1 µM | 0.1 to 1 µM | > 1 µM
24 | – | < 0.1 µM | C=C(F)C(=O)N1CC[C@@H]1COc1cnccc1-c1[nH]c2c(c1Nc1cccc(F)c1C)C(=O)NCC2 [compound 567] | 0.1 to 1 µM | < 0.1 µM | 0.1 to 1 µM
25 | – | < 0.1 µM | C=CC(=O)N1CCN(C)C[C@H]1COc1cnccc1-c1[nH]c2c(c1Nc1cccc(Cl)c1OC)C(=O)NCC2 [compound 568] | 0.1 to 1 µM | < 0.1 µM | < 0.1 µM
26 | – | < 0.1 µM | C=CC(=O)N1CCN(C)C[C@H]1COc1cnccc1-c1[nH]c2c(c1Nc1cccc(F)c1OC)C(=O)NCC2 [compound 569] | 0.1 to 1 µM | < 0.1 µM | < 0.1 µM
